# From US12697325B2 (TENNOR THERAPEUTICS (SUZHOU) LIMITED, priority 2021, dated 2026)
# How the values were obtained:
# [1] = cited from earlier work
# [2] = 2 g, q8 h via infusion for 3 h; cited from earlier work
# [3] = test system: Acinetobacter baumannii strains; assay: Minimum inhibitory concentration (CLSI M07), Example 2, 20 strains; assay type: cell-based
# Protocol: The minimum inhibitory concentration (MIC) was determined in accordance with the requirements of the Clinical and Laboratory Standards Institute (CLSI) M07 (for aerobic bacteria).
# 3.1 The compounds were diluted with DMSO up to 100 times of the highest concentration tested.
# The steps of manual dilution are as follows (example): firstly, the compound or antibiotic was diluted to 100 times of the maximum final concentration tested, then 60 μL of compound mother liquor was added to the first column of the 96-well plate, and 30 μL of DMSO was added to each well in the second to the 12th column; 30 μL of the liquid was transferred from the first column to the second column. After being pipetted up and down to even, 30 μL was transferred to the third column, and was diluted in sequence at a 2-fold gradient for a total of 10 times; then 30 μL was removed from each well in the 11th column, then a compound solution diluted at 2-fold gradient was obtained and 1 μL was transferred to a 96-well test plate.
# Aerobic bacteria: the strains were inoculated on MHA one day in advance and incubated overnight at 37° C. On the day of the assay, 5-6 single colonies were picked and suspended evenly in saline, and the bacterial concentration was adjusted to the turbidity of 0.5 McFarland standard (concentration is about 1×10^8 CFU/mL). The bacterial suspension was diluted at 200-fold with the corresponding liquid culture medium (Table 1), i.e., the bacterial concentration was ~5×10^5 CFU/ml, and then 100 μL of the liquid was transferred to a 96-well round bottom plate (the 96-well plate with compound prepared in 4.2, Echo method) to obtain the test plate. If the compound was manually diluted, then 99 μL of the solution was transferred into a 96-well round bottom plate. The 96-well round bottom plate obtained above was placed into an incubator at 37° C. and 85% humidity to incubate for 20 h.
structure (smiles),measurement,setting,value
"CC1(C)[C@H](C(=O)O)N2C(=O)C[C@H]2S1(=O)=O [Sulbactam, (2S, 5R)-3,3-dimethyl-7-oxo-4-thia-1-azabicyclo [3.2.0] heptane-2-carboxylic acid 4,4-dioxide]",Protein binding,[1],approximately 5.2%
same,Part of the dosing interval with plasma concentration above 2 μg/mL,[2],44%
same,Part of the dosing interval with plasma concentration above 4 μg/mL,[2],19%
same,MIC of the strain BAA-1795 (component in the combination),"[3]; strain BAA-1795, sulbactam/avibactam 4:1, concentration of the named component",8 µg/mL
same,MIC90 of the single component in the combination,"[3]; sulbactam sodium:avibactam sodium = 4:1, concentration of the named component",16 µg/mL
same,MIC50 of the single component in the combination,"[3]; sulbactam sodium:avibactam sodium = 4:1, concentration of the named component, Examples 1 and 2",8 µg/mL
